Measurements from PubChem BioAssay AID2060328 (Molecular Pharmacology Branch, DTP, NCI, 2025).

System: MDA-MB-231 multicell spheroids, viability (%T/C)
Test: Anticancer human tumor MDA-MB-231 cell line growth inhibition [IpAb];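 also: viability read after seven days of drug exposure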;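 as to viability, T/C: 100% = DMSO vehicle control viability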
Conditions: for IC50: curve of first compound; for viability, T/C: stronger effect = lower value
Method in brief: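 Spheroids of 60% malignant cells, 25% HUVEC and 15% MSC were exposed to targeted agents combined with ipatasertib or abemaciclib. Doses started at or near clinical Cmax (10 microM when unknown) and fell in half-log steps.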

[1] = second compound 0.1 µM, first compound 0.0316 µM
[2] = second compound 0.1 µM, first compound 0.1 µM
[3] = second compound 0.1 µM, first compound 0.316 µM
[4] = second compound 0.1 µM, first compound 1 µM
[5] = second compound 0.316 µM, first compound 0.0316 µM
[6] = second compound 0.316 µM, first compound 0.1 µM
[7] = second compound 0.316 µM, first compound 0.316 µM
[8] = second compound 0.316 µM, first compound 1 µM
[9] = second compound 1 µM, first compound 0.0316 µM
[10] = second compound 1 µM, first compound 0.1 µM
[11] = second compound 1 µM, first compound 0.316 µM
[12] = second compound 1 µM, first compound 1 µM

CC1(C)CCC(CN2CCN(c3ccc(C(=O)NS(=O)(=O)c4ccc(NCC5CCOCC5)c([N+](=O)[O-])c4)c(Oc4cnc5[nH]ccc5c4)c3)CC2)=C(c2ccc(Cl)cc2)C1 + CC(C)NCC(C(=O)N1CCN(c2ncnc3c2C(C)CC3O)CC1)c1ccc(Cl)cc1
IC50 (second compound 0.1 µM): 5990 nM | IC50 (second compound 0.316 µM): 5380 nM | IC50 (second compound 1 µM): 4750 nM | IC50 (second compound 3.16 µM): 3680 nM | IC50 (second compound 10 µM): < 31.6 nM | viability, T/C [1]: 99% | viability, T/C [2]: 96.8% | viability, T/C [3]: 103% | viability, T/C [4]: 95.9% | viability, T/C (second compound 0.1 µM, first compound 3.16 µM): 96.9% | viability, T/C (second compound 0.1 µM, first compound 10 µM): 12.4% | viability, T/C [5]: 86.2% | viability, T/C [6]: 88.3% | viability, T/C [7]: 93.7% | viability, T/C [8]: 94.5% | viability, T/C (second compound 0.316 µM, first compound 3.16 µM): 86.1% | viability, T/C (second compound 0.316 µM, first compound 10 µM): 7.75% | viability, T/C [9]: 75.9% | viability, T/C [10]: 79.4% | viability, T/C [11]: 75.4% | viability, T/C [12]: 77.7% | viability, T/C (second compound 1 µM, first compound 3.16 µM): 71.2% | viability, T/C (second compound 1 µM, first compound 10 µM): 10.9% | viability, T/C (second compound 3.16 µM, first compound 0.0316 µM): 60.8% | viability, T/C (second compound 3.16 µM, first compound 0.1 µM): 57.2% | viability, T/C (second compound 3.16 µM, first compound 0.316 µM): 59.4% | viability, T/C (second compound 3.16 µM, first compound 1 µM): 60.1% | viability, T/C (second compound 3.16 µM, first compound 3.16 µM): 56.5% | viability, T/C (second compound 3.16 µM, first compound 10 µM): 7.09% | viability, T/C (second compound 10 µM, first compound 0.0316 µM): 39.8% | viability, T/C (second compound 10 µM, first compound 0.1 µM): 43% | viability, T/C (second compound 10 µM, first compound 0.316 µM): 40.5% | viability, T/C (second compound 10 µM, first compound 1 µM): 39.4% | viability, T/C (second compound 10 µM, first compound 3.16 µM): 36.4% | viability, T/C (second compound 10 µM, first compound 10 µM): 4.22%

COc1c(OCCCN2CCOCC2)ccc2c3n(c(=NC(=O)c4cnc(N)nc4)nc12)CCN3 + CCN1CCN(Cc2ccc(Nc3ncc(F)c(-c4cc(F)c5nc(C)n(C(C)C)c5c4)n3)nc2)CC1
IC50 (second compound 0.01 µM): 24 nM | IC50 (second compound 0.0316 µM): 14.6 nM | IC50 (second compound 0.1 µM): 4.68 nM | IC50 (second compound 0.316 µM): < 3.16 nM | IC50 (second compound 1 µM): < 3.16 nM | viability, T/C (second compound 0.01 µM, first compound 0.00316 µM): 81.7% | viability, T/C (second compound 0.01 µM, first compound 0.01 µM): 59% | viability, T/C (second compound 0.01 µM, first compound 0.0316 µM): 50.2% | viability, T/C (second compound 0.01 µM, first compound 0.1 µM): 37.7% | viability, T/C (second compound 0.01 µM, first compound 0.316 µM): 31.7% | viability, T/C (second compound 0.01 µM, first compound 1 µM): 37.7% | viability, T/C (second compound 0.0316 µM, first compound 0.00316 µM): 65.5% | viability, T/C (second compound 0.0316 µM, first compound 0.01 µM): 53.1% | viability, T/C (second compound 0.0316 µM, first compound 0.0316 µM): 43.9% | viability, T/C (second compound 0.0316 µM, first compound 0.1 µM): 34.1% | viability, T/C (second compound 0.0316 µM, first compound 0.316 µM): 29.7% | viability, T/C (second compound 0.0316 µM, first compound 1 µM): 38.5% | viability, T/C (second compound 0.1 µM, first compound 0.00316 µM): 53.7% | viability, T/C (second compound 0.1 µM, first compound 0.01 µM): 44.2% | viability, T/C [1]: 36.6% | viability, T/C [2]: 31.1% | viability, T/C [3]: 29.1% | viability, T/C [4]: 43.4% | viability, T/C (second compound 0.316 µM, first compound 0.00316 µM): 46.4% | viability, T/C (second compound 0.316 µM, first compound 0.01 µM): 41.6% | viability, T/C [5]: 35.2% | viability, T/C [6]: 31.7% | viability, T/C [7]: 34.4% | viability, T/C [8]: 67.5% | viability, T/C (second compound 1 µM, first compound 0.00316 µM): 53% | viability, T/C (second compound 1 µM, first compound 0.01 µM): 48.6% | viability, T/C [9]: 46.8% | viability, T/C [10]: 44.8% | viability, T/C [11]: 55.1% | viability, T/C [12]: 128%
